Reference: patent US9376454B2, “Beta-lactamase inhibitors” (priority 2013, dated 2016)

Experiments:
Type in all cases: biochemical
p99 AmpC β-lactamase = biological target: T1, p99 AmpC β-lactamase (Enterobacter cloacae, UniProt P05364); test: β-Lactamase inhibition enzyme assay, p99 AmpC
T1 construct: made in house; host or cells: E. coli BL21(DE3)
Procedure: (§1) For SHV-5, Kpc-2, p99AmpC and OXA-1 β-lactamases, E. coli BL21(DE3) bacterial cells carrying expression plasmids (expressed as native untagged proteins) for the individual β-lactamases were grown in 1 L of Superbroth (Teknova Inc. Hollister, Calif.) supplemented with 100 μg/ml kanamycin selection and 1×5052 (0.5% glycerol, 0.05% glucose and 0.2% α-lactose) at 35° C. for 18-20 hours. Cells were harvested by centrifugation (4,000×g, 4° C., 20 min), resuspended in 50 ml of 10 mM HEPES pH 7.5 ( 1/20 of the initial volume). The cells were lysed by sonication (5 pulses of 45 seconds) at 45 W on ice. The lysates were clarified by centrifugation at 10,000×g for 40 minutes at 4° C. Samples were diluted 5-fold in 50 mM sodium acetate pH 5.0, stored overnight at 4° C., after which they were centrifuged at 10,000×g for 30 minutes to clarify, and filtered through 0.45 μm filters. The samples were loaded onto a 5 ml Capto S sepharose cation exchange column (GE Healthcare) pre-equilibrated with 50 mM sodium acetate pH 5.0. The column was washed with 5 column volumes of 50 mM sodium acetate pH 5.0 to wash out unbound protein and a linear gradient of NaCl (0 to 500 mM) was used to elute the protein (over 16 CV) from the column. Fractions were assayed for β-lactamase activity using Centa (Calbiochem, Gibbstown, N.J.) or Nitrocefin (EMD Millipore chemicals, Darmstadt, Germany) as a reporter β-lactamase substrate for activity in the isolated fractions. Active fractions were pooled, concentrated and further purified by gel filtration chromatography on a Superdex 75 prep grade gel filtration column (GE Healthcare, Piscataway, N.J.) pre-equilibrated in 50 mM Hepes pH 7.5, 150 mM NaCl. Active fractions were pooled concentrated, quantitated by BCA protein determination (Thermo Scientific, Rockford, Ill.), dialyzed into PBS and frozen at −80° C. in 20% glycerol until use.
(§2) An equal volume of diluted enzyme stock was added, and the plates were incubated at 37° C. for 15 min. Nitrocefin was used as substrate for p99 AmpC, VIM-2 and OXA-1 and dispensed into each well at a final concentration of 100 μM. Absorbance at 486 nm was immediately monitored for 10 min using a Biotek Powerwave XS2 microplate spectrophotometer using the GEN5 softweare package (Biotek Instruments, Winooski Vt.). In an analogous fashion, imipenem was used as substrate for Kpc-2 and Cefotaxime was used for SHV-5, while changes in absorbance upon hydrolysis of the β-lactam ring were monitored at 300 nm and 260 nm respectively in UV-transparent 96-well microtiter assay plates. Maximum rates of hydrolysis were compared to those in control wells (without inhibitors), and percentages of enzyme inhibition were calculated for each concentration of inhibitor. The concentration of inhibitor needed to reduce the initial rate of hydrolysis of substrate by 50% (IC50) was calculated as the residual activity of β-lactamase at 486 nm using GraFit version 7 kinetics software package (Erithacus Software, Surrey, UK).

KPC-2 β-lactamase = biological target: T2, KPC-2 β-lactamase (Klebsiella pneumoniae, UniProt Q9F663); test: β-Lactamase inhibition enzyme assay, KPC-2; conditions: imipenem as substrate, 300 nm; 15 min at 37° C. with enzyme, PBS pH 7.4; read-out: Class A KPC-2 IC50
T2 construct: made in house; host or cells: E. coli BL21(DE3)
Procedure: as §1, §2

[1] = biological target: T3, VIM-2 metallo β-lactamase (Pseudomonas aeruginosa, UniProt Q9K2N0); test: β-Lactamase inhibition enzyme assay, VIM-2; conditions: Nitrocefin 100 μM as substrate, 486 nm; 15 min at 37° C. with enzyme, PBS pH 7.4; read-out: Class B VIM-2 IC50
T3 construct: made in house; host or cells: E. coli BL21(DE3)
Procedure: as §1
For Vim-2 metallo β-lactamase, the procedure was identical with the following exceptions, first the protein was not pH adjusted to pH 5 with 50 mM sodium acetate, second, the chromatography step was changed to a 5 ml Q sepharose anion exchange column pre-equilibrated with 50 mM Hepes pH 7.5, and elution of the protein was achieved by a linear gradient of NaCl (0-600 mM). Finally, the VIM-2 purification required a second run (3rd step) on the Q sepharose anion exchange column to achieve acceptable purity (>90%).
as §2

OXA-1 β-lactamase = biological target: T4, OXA-1 β-lactamase (Escherichia coli, UniProt P13661); test: β-Lactamase inhibition enzyme assay, OXA-1; conditions: Nitrocefin 100 μM as substrate, 486 nm; 15 min at 37° C. with enzyme, PBS pH 7.4; read-out: Class D OXA-1 IC50
T4 construct: made in house; host or cells: E. coli BL21(DE3)
Procedure: as §1, §2

SHV-5 β-lactamase = biological target: T5, SHV-5 β-lactamase (Klebsiella pneumoniae, UniProt P0A3M1); test: β-Lactamase inhibition enzyme assay, SHV-5
T5 construct: made in house; host or cells: E. coli BL21(DE3)
Procedure: as §1, §2

T5 sequence (P0A3M1 22-286): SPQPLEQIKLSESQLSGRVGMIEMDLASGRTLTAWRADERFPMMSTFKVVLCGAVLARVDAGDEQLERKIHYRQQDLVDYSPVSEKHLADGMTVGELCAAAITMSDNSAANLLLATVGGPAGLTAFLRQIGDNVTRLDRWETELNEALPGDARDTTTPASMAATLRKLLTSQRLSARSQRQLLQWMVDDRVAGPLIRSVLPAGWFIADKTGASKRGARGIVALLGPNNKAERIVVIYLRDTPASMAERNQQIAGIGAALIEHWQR
T1 sequence (P05364 21-381): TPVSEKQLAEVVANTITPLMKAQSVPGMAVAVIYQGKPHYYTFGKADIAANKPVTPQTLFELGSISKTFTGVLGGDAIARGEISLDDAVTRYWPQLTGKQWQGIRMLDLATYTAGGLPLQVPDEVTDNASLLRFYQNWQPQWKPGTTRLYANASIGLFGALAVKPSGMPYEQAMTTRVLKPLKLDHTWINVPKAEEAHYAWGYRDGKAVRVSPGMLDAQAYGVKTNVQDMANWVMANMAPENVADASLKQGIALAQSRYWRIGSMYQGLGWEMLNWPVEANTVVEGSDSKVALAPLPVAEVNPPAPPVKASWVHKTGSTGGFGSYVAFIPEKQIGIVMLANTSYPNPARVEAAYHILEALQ
T2 sequence (Q9F663 25-293, looked up): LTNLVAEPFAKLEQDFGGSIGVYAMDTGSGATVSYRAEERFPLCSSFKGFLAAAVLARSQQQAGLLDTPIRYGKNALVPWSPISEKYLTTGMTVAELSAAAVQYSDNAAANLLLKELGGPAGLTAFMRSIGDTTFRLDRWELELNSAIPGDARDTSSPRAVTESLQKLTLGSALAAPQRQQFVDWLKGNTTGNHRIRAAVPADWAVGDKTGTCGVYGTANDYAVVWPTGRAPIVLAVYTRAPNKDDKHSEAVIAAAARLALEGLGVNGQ
T4 sequence (P13661 26-276): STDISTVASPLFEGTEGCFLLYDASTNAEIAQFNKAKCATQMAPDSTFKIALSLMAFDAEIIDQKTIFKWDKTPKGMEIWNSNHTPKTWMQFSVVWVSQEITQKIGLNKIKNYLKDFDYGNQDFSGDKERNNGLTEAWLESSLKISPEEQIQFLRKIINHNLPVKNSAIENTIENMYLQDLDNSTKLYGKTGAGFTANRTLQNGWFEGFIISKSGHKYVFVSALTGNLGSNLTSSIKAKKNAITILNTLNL

| SMILES | IC50 (p99 AmpC β-lactamase) | IC50 (KPC-2 β-lactamase) | IC50 [1] | IC50 (OXA-1 β-lactamase) | IC50 (SHV-5 β-lactamase) |
| --- | --- | --- | --- | --- | --- |
| NCCN1Cc2ccc(CC(=O)N[C@H]3Cc4cccc(C(=O)O)c4OB3O)cc2C1 [Example 49, (R)-3-{2-[2-(2-Amino-ethyl)-2,3-dihydro-1H-isoindol-5-yl]-acetylamino}-2-hydroxy-3,4-dihydro-2H-benzo[e][1,2]oxaborinine-8-carboxylic acid] | < 100 nM | < 100 nM | 100 to 1000 nM | < 100 nM | < 100 nM |
| O=C(N[C@H]1Cc2cccc(C(=O)O)c2OB1O)c1cnco1 [Example 52, (R)-2-Hydroxy-3-[(oxazole-5-carbonyl)-amino]-3,4-dihydro-2H-benzo[e][1,2]oxaborinine-8-carboxylic acid] | < 100 nM | < 100 nM | 100 to 1000 nM | < 100 nM | < 100 nM |
| O=C(N[C@H]1Cc2cccc(C(=O)O)c2OB1O)c1csc2c1CCNC2 [Example 4, (R)-2-hydroxy-3-(4,5,6,7-tetrahydrothieno[2,3-c]pyridine-3-carboxamido)-3,4-dihydro-2H-benzo[e][1,2]oxaborinine-8-carboxylic acid] | < 100 nM | < 100 nM | 100 to 1000 nM | < 100 nM | < 100 nM |
| CN(C)Cc1ccc(C(=O)N[C@H]2Cc3cccc(C(=O)O)c3OB2O)cc1NC(=O)[C@@H](N)CN [Example 21, (R)-3-(3-((S)-2,3-diaminopropanamido)-4-((dimethylamino)methyl)benzamido)-2-hydroxy-3,4-dihydro-2H-benzo[e][1,2]oxaborinine-8-carboxylic acid] | < 100 nM | < 100 nM | < 100 nM | < 100 nM | 100 to 1000 nM |
| O=C(N[C@H]1Cc2cccc(C(=O)O)c2OB1O)c1ccc(-c2ccccn2)cc1 [Example 24, (R)-2-hydroxy-3-(4-(pyridin-2-yl)benzamido)-3,4-dihydro-2H-benzo[e][1,2]oxaborinine-8-carboxylic acid] | < 100 nM | < 100 nM | 100 to 1000 nM | < 100 nM | < 100 nM |
| O=C(O)c1cccc2c1OB(O)[C@@H](NC(=O)C(F)(F)c1ccccc1)C2 [Example 2, (R)-3-(2,2-difluoro-2-phenylacetamido)-2-hydroxy-3,4-dihydro-2H-benzo[e][1,2]oxaborinine-8-carboxylic acid] | < 100 nM | < 100 nM | 1000 to 10000 nM | < 100 nM | < 100 nM |
| CC(C)NCc1cc(C(=O)N[C@H]2Cc3cccc(C(=O)O)c3OB2O)ccc1CN [Example 55, (R)-3-(4-(aminomethyl)-3-((isopropylamino)methyl)benzamido)-2-hydroxy-3,4-dihydro-2H-benzo[e][1,2]oxaborinine-8-carboxylic acid] | 100 to 1000 nM | 1000 to 10000 nM | 100 to 1000 nM | 100 to 1000 nM | 100 to 1000 nM |
| O=C(N[C@H]1Cc2cccc(C(=O)O)c2OB1O)c1ccc2c(c1)CN(Cc1cccnc1)C2 [Example 12, (R)-2-hydroxy-3-(2-(pyridin-3-ylmethyl)isoindoline-5-carboxamido)-3,4-dihydro-2H-benzo[e][1,2]oxaborinine-8-carboxylic acid] | < 100 nM | < 100 nM | 100 to 1000 nM | < 100 nM | < 100 nM |
| O=C(Cc1ccc2cc[nH]c2c1)N[C@H]1Cc2cccc(C(=O)O)c2OB1O [Example 46, (R)-2-Hydroxy-3-(2-1H-indol-6-yl-acetylamino)-3,4-dihydro-2H-benzo[e][1,2]oxaborinine-8-carboxylic acid] | < 100 nM | < 100 nM | < 100 nM | < 100 nM | < 100 nM |
| O=C(O)c1cccc2c1OB(O)[C@@H](NC(=O)c1cccc3[nH]ccc13)C2 [Example 32, (R)-2-Hydroxy-3-[(1H-indole-4-carbonyl)-amino]-3,4-dihydro-2H-benzo[e][1,2]oxaborinine-8-carboxylic acid] | < 100 nM | < 100 nM | 100 to 1000 nM | < 100 nM | < 100 nM |
| NCc1cnc(C(=O)N[C@H]2Cc3cccc(C(=O)O)c3OB2O)cc1CN [Example 63] | < 100 nM | < 100 nM | < 100 nM | < 100 nM | 100 to 1000 nM |
| O=C(O)c1cccc2c1OB(O)[C@@H](NC(=O)C1(c3ccccc3)CC1)C2 [Example 1, (R)-2-hydroxy-3-(1-phenylcyclopropanecarboxamido)-3,4-dihydro-2H-benzo[e][1,2]oxaborinine-8-carboxylic acid] | < 100 nM | < 100 nM | 100 to 1000 nM | < 100 nM | < 100 nM |
| O=C(O)c1cccc2c1OB(O)[C@@H](NC(=O)c1c[nH]c3ncccc13)C2 [Example 8, (R)-2-hydroxy-3-(1H-pyrrolo[2,3-b]pyridine-3-carboxamido)-3,4-dihydro-2H-benzo[e][1,2]oxaborinine-8-carboxylic acid] | < 100 nM | 100 to 1000 nM | 1000 to 10000 nM |  | < 100 nM |
| O=C(N[C@H]1Cc2cccc(C(=O)O)c2OB1O)c1ccc2c(c1)CNC2 [Example 9, (R)-2-hydroxy-3-(isoindoline-5-carboxamido)-3,4-dihydro-2H-benzo[e][1,2]oxaborinine-8-carboxylic acid] | < 100 nM | < 100 nM | < 100 nM | < 100 nM | < 100 nM |
| CN(C)Cc1ccc(C(=O)N[C@H]2Cc3cccc(C(=O)O)c3OB2O)cc1N [Example 18, (R)-3-(3-amino-4-((dimethylamino)methyl)benzamido)-2-hydroxy-3,4-dihydro-2H-benzo[e][1,2]oxaborinine-8-carboxylic acid] | < 100 nM | < 100 nM | 100 to 1000 nM | < 100 nM | < 100 nM |
| O=C(O)c1ccccc1C(=O)N[C@H]1Cc2cccc(C(=O)O)c2OB1O [Example 53, (R)-3-(2-carboxybenzamido)-2-hydroxy-3,4-dihydro-2H-benzo[e][1,2]oxaborinine-8-carboxylic acid] | < 100 nM | 100 to 1000 nM | 1000 to 10000 nM | < 100 nM | 100 to 1000 nM |
| CNCc1ccc(C(=O)N[C@H]2Cc3cccc(C(=O)O)c3OB2O)cc1CNC [Example 19, (R)-3-(3,4-bis((methylamino)methyl)benzamido)-2-hydroxy-3,4-dihydro-2H-benzo[e][1,2]oxaborinine-8-carboxylic acid] | < 100 nM | < 100 nM | < 100 nM | < 100 nM | < 100 nM |
| O=C(N[C@H]1Cc2cccc(C(=O)O)c2OB1O)c1ccc(-c2ccncc2)cc1 [Example 27, (R)-2-hydroxy-3-(4-(pyridin-4-yl)benzamido)-3,4-dihydro-2H-benzo[e][1,2]oxaborinine-8-carboxylic acid] | < 100 nM | < 100 nM | 1000 to 10000 nM | < 100 nM | < 100 nM |
